Data: patent publication US8765098B2, “Star polymers, methods of preparation thereof, and uses thereof” (International Business Machines Corporation, priority 2010, dated 2014)

Assay: Appearance of aqueous mixtures of star polymer, dye alone and loaded star polymers (FIG. 10)
Format: physicochemical
Conditions: in water, FIG. 10 vials A-D
Experimental: The solution was added drop-wise to water (0.9 mL) with rapid stirring, causing the water to rapidly and uniformly color from the dye. Excess solid dye material not adsorbed to the star polymer was removed by passing the mixture through a 0.2 micrometer syringe filter, thereby forming a clear and uniformly colored aqueous solution. The further addition of water had no visible effect on the homogeneity of the solution.
FIG. 10 is a photograph of four aqueous mixtures. […] The vial labeled C is an aqueous mixture of 5,10,15,20-(3,5-ditertbutylphenyl)porphyrin (M=2H) (DTBP) alone in water.

appearance of aqueous solution / mixture: clear and colorless
SMILES: CC(C)(C)c1cc(-c2c3nc(c(-c4cc(C(C)(C)C)cc(C(C)(C)C)c4)c4ccc([nH]4)c(-c4cc(C(C)(C)C)cc(C(C)(C)C)c4)c4nc(c(-c5cc(C(C)(C)C)cc(C(C)(C)C)c5)c5ccc2[nH]5)C=C4)C=C3)cc(C(C)(C)C)c1 [DTBP, 5,10,15,20-(3,5-ditertbutylphenyl)porphyrin (M=2H)]
